Results taken from patent publication US20230301972A1, “ANTI-FIBROTIC COMPOSITION AND RELATED METHODS” (Fred Hutchinson Cancer Center, priority 2020, published 2023).

Key:
Type in all cases: cell-based, human
[1] = system: LX2 cells; assay: Live cell wound healing assay in LX2 cells; details: 1 μM; TGFb 6.5 ng/ml; wound closure density at 50 hour
Method: (§1) LX2 cells were obtained from Sigma Aldrich (Cat #SCC064). LX2 cells were grown at 37° C. under 5% CO2, 95% ambient atmosphere and maintained in Dulbecco's […] (DMEM) supplemented with 10% FBS (Sigma) and 1% Penn Strep.
FIG. 10A: LX2 cells were plated on 96-well plates (Essen Image Lock, Essen Instruments). […] Wound closure was monitored with Incucyte Live-Cell Imaging System and software (Essen Instruments) every 2-4 hours for 72 hours. The mean relative wound density of at least three biological replicates was calculated. The wound density correlates with the cell motility. Plotted is the wound closure density at 50 hour.

[2] = system: LX2 cells; assay: qPCR of TGF-β-induced gene expression in LX2 cells; details: galunisertib
Method: as §1
(§2) FIGS. 10B and 10C: LX2 cells were incubated with TGF-β alone at 6.5 ng/ml or TGF-β with indicated drugs for 48 hours. Total cellular RNA was isolated using a RNeasy Mini Kit (QIAGEN). 1 μg of total RNA was reverse transcribed into first-strand cDNA using an RT2 First Strand Kit (QIAGEN). The resultant cDNA was subjected to qPCR using indicated human primers to measure the changes in mRNA expression of indicated human genes.

[3] = system: IPF-LL29 and IPF-LL97A cells; assay: qPCR of TGF-β-induced gene expression in IPF-LL29 and IPF-LL97A cells; details: nintedanib at a same equivalent dose, pirfenidone at a much higher dose; FIGS. 2A, 2B, 3A, 3B
Method: IPF-LL29, IPF-LL97A, and human lung fibroblast LL47 cell lines were purchased from ATCC. Mouse lung fibroblasts were isolated from the lungs of male C57BL/6J mice. Cells were grown at 37° C. under 5% CO2, 95% ambient atmosphere and maintained in Dulbecco's […] (DMEM) supplemented with 10% FBS (Sigma) and 1% Penn Strep.
as §2, with “2A” for “10B”, “2B. IPF-29 (FIG. 2A) or IPF-97A (FIG. 2B)” for “10C: LX2”, “5” for “6.5”, “hours and 5 days.” for “hours.”

Structure (SMILES): Cc1cccc(-c2nn3c(c2-c2ccnc4ccc(C(N)=O)cc24)CCC3)n1 [galunisertib, reference compound]
- TGF-β-induced motility of LX2 cells [1]: did not affect LX2 cell motility
- effect on TGF-β-induced expression of COL1A1 and αSMA [2]: modest effect

Structure (SMILES): COC(=O)c1ccc2c(c1)NC(=O)/C2=C(\Nc1ccc(N(C)C(=O)CN2CCN(C)CC2)cc1)c1ccccc1 [nintedanib, reference compound]
- TGF-β induced expression of myofibroblast activation marker genes or proliferation stimuli [3]: did not effectively block

Structure (SMILES): Cc1ccc(=O)n(-c2ccccc2)c1 [pirfenidone, reference compound]
- TGF-β induced expression of myofibroblast activation marker genes or proliferation stimuli [3]: did not effectively block
